Source: the METLIN SMRT retention time set (Domingo-Almenara et al. 2019)

Assay: gradient 5% acetonitrile 3 min, to 50% in 2 min, to 85% in 15 min, held 3 min, 100 µL/min
Details: column: Zorbax Extend-C18 2.1 x 50 mm; eluents: water / acetonitrile, 0.1% formic acid
How it was run: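 Using water and acetonitrile that each contained 0.1% formic acid, mixtures of ~100 pure standards were separated at 100 μL/min on a Zorbax Extend-C18 column (2.1 × 50 mm, 1.8 μm). The HPLC fed a quadrupole time-of-flight mass spectrometer working in positive and negative ionization mode, with dead and dwell volumes of 40 μL and 900 μL. Data were acquired over 3 months. Retention time was read from computationally picked adduct peaks after manual inspection of each.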

| RP-LC retention time | Structure (SMILES) |
| --- | --- |
| 1250 s | CCCC[C@@H](C)/C=C(C)/C=C(\C)C(=O)NC1=C[C@@](O)(/C=C/C=C/C=C/C(=O)NC2=C(O)CCC2=O)[C@@H]2OC2C1=O (stereo partly drawn) |
| 659 s | COc1ccc(C)cc1NC(=O)N1CCN(c2ccc(-c3ccc4c(c3)OCO4)nn2)CC1 |
| 576 s | COc1cccc(-c2[nH]ncc2CN2CCC3(CC2)CC(O)CCO3)c1 (stereo not drawn) |
| 1110 s | CC1=NS(=O)(=O)N(Cc2ccccc2)C=C1C(=O)OCc1noc(C2CCCCC2)n1 |
| 645 s | CCS(=O)(=O)c1cccc(-c2cc(C(=O)NC3CCN(C)CC3)c(C)c3[nH]c4ncc(C)cc4c23)c1 |
| 567 s | Cc1nc2cc3c(cc2n1CC(=O)NCC1CCCO1)OCCO3 (stereo not drawn) |
| 655 s | CCc1nncn1C1CCN(C(=O)c2cc(C)cc(C)c2)CC1 |
| 618 s | COc1ccc(N2CCN(c3nc(C(=O)NCCN(C)C)cs3)CC2)cc1 |
| 1080 s | COc1ccc(-c2csc(NC(=O)CS(=O)(=O)c3ccc(Cl)cc3)n2)cc1C |
| 1050 s | CC(=O)N1CCCSc2ccc(S(=O)(=O)N3CCN(c4cccc(Cl)c4)CC3)cc21 |
| 1260 s | CCc1ccc(-c2csc(NC(=O)c3ccc(S(=O)(=O)N4CCCCC4)cc3)n2)cc1 |
| 614 s | COc1ccc(N2CCN(c3nc(C(=O)N4CCN(C)CC4)cs3)CC2)cc1 |
| 596 s | Cc1cccc2c(C(=O)O)cc(N3CCN(C)CC3)nc12 |
| 689 s | CCCCCNC(=O)c1ccc2nc(CCc3ccc(NC(=O)C(C)C)cc3)[nH]c2c1 |
| 714 s | Cc1ccc(C(=O)c2cnc3cc4c(cc3c2N2CCOCC2)OCO4)cc1C |
| 568 s | C[C@@H]1CN(C(=O)Cc2cccnc2)C[C@H]1c1nc(-c2ccncc2)no1 |
| 1030 s | COc1ccc(NC(=O)N2c3ccccc3CC2c2nc(C3CC3)no2)c(OC)c1 (stereo not drawn) |
| 595 s | Cc1ccc(CN2CCC3(CC2)CC(O)(c2ccccn2)CCO3)o1 (stereo not drawn) |
| 760 s | Cc1ccc(-c2nc(-c3ccc4c(c3)nnn4CCN3CCOCC3)no2)cc1C |
| 1020 s | Cc1c(Cl)cccc1S(=O)(=O)N1CCC(C(=O)NCc2csc(-c3cccs3)n2)CC1 |
| 871 s | Cc1nc2ccccc2c(=O)n1Cc1noc(-c2ccccc2Br)n1 |
| 707 s | NC1=NCC2c3ccccc3Cc3ccccc3N12 (stereo not drawn) |

| RP-LC retention time | Structure (SMILES) |
| --- | --- |
| 706 s | O=C(NCc1ccc2c(c1)OCO2)C1CCN(C(=O)c2ccccc2)CC1 |
| 567 s | COC(=O)C1=C(CN2CCN(C)CC2)NC(=O)NC1c1ccc(OC)c(OC)c1 (stereo not drawn) |
| 581 s | CCCNC(=O)C1Cn2cccc2C(=O)N1 (stereo not drawn) |
| 683 s | COc1ccccc1OCC(O)CN1CCN(CC(=O)Nc2c(C)cccc2C)CC1 (stereo not drawn) |
| 1030 s | O=C1COc2ccccc2N1Cc1nc(-c2ccc3c(c2)nnn3C2CCCC2)no1 |
| 691 s | COc1ccc(C(=O)Nc2cnc(N3CCCC3)nc2)cc1 |
| 774 s | Fc1cccc(-c2nnc(C(c3cccc(Cl)c3)N3CCN(c4ccccn4)CC3)o2)c1 (stereo not drawn) |
| 1180 s | Fc1ccc(-c2noc(-c3ccc(N4CCC5(CC4)OCCO5)nc3)n2)cc1 |
| 843 s | O=C(Nc1ccccn1)C1CCN(S(=O)(=O)c2ccc(-c3noc(C4CC4)n3)cc2)CC1 |
| 858 s | CCOc1cccc(-c2noc(Cn3ccn(-c4ccccc4)c(=O)c3=O)n2)c1 |
| 1050 s | CCc1ccc(S(=O)(=O)N2CCc3c(c(-c4nnc(-c5ccc(F)cc5)o4)nn3C)C2)cc1 |
| 991 s | CC(C)(C)c1ccc(C(=O)N2CCC3(CC2)N=C(c2ccccc2)NO3)cc1 |
| 979 s | COc1cc(Cl)cc2c1OC=CC(C(=O)Nc1ccc(N3CCOCC3)cc1)=C2 |
| 656 s | COc1cccc(CNC(=O)C2CCN(S(=O)(=O)c3cn(C)cn3)CC2)c1 |
| 676 s | Cc1ccccc1Nc1c(-c2ccccc2O)nc2cccc(C)n12 |
| 742 s | Cc1cc(C(=O)NCCc2c[nH]c3ccccc23)c2c(=O)n(C)c(=O)n(C)c2n1 |
| 1330 s | Cc1ccc(C)c(-c2coc(-c3ccc(NC(=O)c4sccc4C)cc3)n2)c1 |
| 929 s | Cc1nn2c(CNS(=O)(=O)Cc3cc(F)cc(F)c3)c(-c3ccccc3)nc2s1 |
| 884 s | Cc1cc(C(=O)Nc2c(F)cc(F)cc2Br)n(-c2ccccc2)n1 |
| 690 s | CCNC(=O)C1CCCN(c2nc3ncn(CC(=O)N4CCc5ccccc5C4)c(=O)c3s2)C1 (stereo not drawn) |
| 611 s | NC(=O)C1CCN(C2CC(=O)N(c3ccc(Cl)c(Cl)c3)C2=O)CC1 (stereo not drawn) |
| 925 s | COC(=O)C1=CN(c2cccc(SC)c2)c2cc(F)ccc2S1(=O)=O |

| RP-LC retention time | Structure (SMILES) |
| --- | --- |
| 713 s | CCCOc1nccnc1NC1CCN(C(=O)c2ccsc2)CC1 |
| 836 s | CCc1c2c(nc3sc(C(=O)NCC4CCCO4)c(N)c13)CC(C)(C)CC2=O (stereo not drawn) |
| 916 s | Cc1ccc(CNC(=O)N2CCCC(C)(C(=O)NCc3ccccc3C)C2)cc1 (stereo not drawn) |
| 634 s | CCc1nccn1Cc1noc(-c2ccccc2)n1 |
| 644 s | CC1CCCN(C(=O)C(=O)NCc2n[nH]c(=O)c3ccccc23)C1 (stereo not drawn) |
| 763 s | COc1ccc(N2CCN(C(=O)C3CCCN(C(=O)c4[nH]c(C)cc4C)C3)CC2)cc1 (stereo not drawn) |
| 905 s | Cc1nn(-c2ccccc2)c(C)c1S(=O)(=O)N1CCC(C(=O)Nc2ccc3c(c2)OCO3)CC1 |
| 537 s | O=C(Cn1cccn1)Nc1nc(-c2cccnc2)cs1 |
| 661 s | Cc1cc(C(=O)N(C)C)c(C)n1-c1ccc(O)cc1 |
| 774 s | Cc1oc(-c2ccc(NC(=O)C3CCCO3)cc2)nc1Cn1cccn1 (stereo not drawn) |
| 1000 s | COc1ccc(OC)c(S(=O)(=O)Cc2nc(-c3ccc(C)cc3)no2)c1 |
| 602 s | COCC1CN(C(C)=O)CC12CCN(C(=O)CSC)CC2 (stereo not drawn) |
| 851 s | Cc1cccc(Cn2nc3n(CCC(=O)NC(C)C)c(=O)c4ccccc4n3c2=O)c1 |
| 595 s | CCOC(=O)C1CCN(C(=O)c2nc(N3CCCCC3)c3c(C)cc(C)nc3n2)CC1 |
| 654 s | Cc1ccc(S(=O)(=O)N2CCC3(CC2)c2nccn2CCN3C)cc1F |
| 624 s | N#Cc1ccc(-c2nc(-c3ccc4c(c3)ncn4CCN3CCOCC3)no2)cc1 |
| 717 s | Cc1ccn2c(Nc3ccc4c(c3)OCCO4)c(-c3ccc(Cl)cc3)nc2c1 |
| 672 s | CS(=O)(=O)N[C@H]1C[C@@H]2C[C@H]1CN2C(=O)c1cccc(Cl)c1 |
| 1090 s | Cc1ccc(C(C)NC(=O)C2CCN(c3nccnc3Oc3ccccc3)CC2)c(C)c1 (stereo not drawn) |
| 1080 s | COc1cccc(-c2ccc(=O)n(Cc3nc(-c4cccc(Cl)c4)no3)n2)c1 |
| 760 s | O=C(NCc1ccccc1)C1CCN(C(=O)c2ncn3c2COC(c2ccccc2)C3)CC1 (stereo not drawn) |
| 672 s | COc1cc(Br)cc2c1OC1(C)CC2NC(=O)N1c1cccc(C(=O)O)c1 (stereo not drawn) |

| RP-LC retention time | Structure (SMILES) |
| --- | --- |
| 791 s | Cc1nn(-c2cc(N3CCCC3)ncn2)c(C)c1CCC(=O)Nc1ccc(F)cc1Cl |
| 697 s | COc1cc(C)c(Br)cc1S(=O)(=O)N1CCC(C(N)=O)CC1 |
| 945 s | Cc1cc(-c2nnc(-c3ccc(F)cc3)o2)c(C)n1CC(=O)NCc1ccc(F)cc1 |
| 811 s | Cc1sc2ccn(C)c(=O)c2c1C(=O)NCc1ccc(Br)cc1 |
| 1070 s | Cc1ccc(-c2ccc(-n3nc(C)c(S(=O)(=O)Nc4ccc(F)cc4)c3C)nn2)cc1 |
| 714 s | CCCn1ncc(N2CCC(C(=O)NCCc3cccs3)CC2)cc1=O |
| 943 s | COc1ccc(-c2nc3c(s2)CN(C(=O)Nc2ccccc2OC)CC3)cc1 |
| 896 s | CCn1nc(-c2csc(S(=O)(=O)N3CCCCC3C)c2)ccc1=O (stereo not drawn) |
| 615 s | CN(C)C(=O)c1ccc2c(c1)N(CC(=O)NCCN1CCCCCC1)C(=O)C1CCCCN21 (stereo not drawn) |
| 827 s | O=S(=O)(c1ccc2c(c1)-c1oncc1CO2)N1CCC2(CC1)OCCO2 |
| 910 s | CCOc1ccc(-c2noc(Cn3c(=O)n(-c4ccccc4)c(=O)c4sccc43)n2)cc1OC |
| 739 s | O=C(c1cccnc1)N1CCCn2nc(-c3ccc(Cl)cc3)cc2C1 |
| 1030 s | CC1CCN(C(=O)C2=NN(Cc3ccccc3F)c3ccccc3S2(=O)=O)CC1 |
| 974 s | Cc1cc(C)c(S(=O)(=O)N2CCCC(C(=O)Nc3ccc4c(c3)OCO4)C2)c(C)c1 (stereo not drawn) |
| 670 s | Cc1ccc(-c2cc(C(=O)NCCN3CCCC3)n(C)c2)cc1 |
| 1040 s | CCCCCCOc1ccccc1C(N)=O |
| 620 s | Cc1nn(CC(=O)NCCCN2CCCC2)c(=O)c2nc(-c3ccccc3)sc12 |
| 705 s | CN(C)c1cccc(C(=O)NC2CCN(c3ccc(F)cc3)C2=O)c1 (stereo not drawn) |
| 876 s | COc1cc(NC(=O)CN2C(=O)C(C)(C)c3ccccc32)cc(OC)c1 |

| Structure (SMILES) | RP-LC retention time |
| --- | --- |
| CCOc1ccccc1NC(=O)N1CCC2(C1)C(=O)N(C)c1ccc(OC)cc12 (stereo not drawn) | 882 s |
| O=C(c1cc(=O)c2ccccc2o1)N1CC2CC(C1)c1cccc(=O)n1C2 (stereo not drawn) | 598 s |
| CCn1cc(-c2ccc(Cl)cc2)cc1C(=O)N1CCC2(CC1)OCCO2 | 1040 s |
